Results taken from patent EP1358888A1, “The human peptide antibiotic LL-37/hCAP-18 is an inducer of angiogenesis” (priority 2002, dated 2003).
Entries after “also recorded” stand apart in the source; their conditions may differ. Like-named read-outs stand apart in the source and are kept apart here.

Test system: HUVECs
Test: Inhibition experiments: signalling inhibitors on LL-37/hCAP-18-induced endothelial proliferation
Assay type: cell-based, human
Experimental: Stimulation of angiogenesis by LL-37/hCAP-18 in vitro. a, In vitro proliferation assays. HUVECs were seeded on six well plastic dishes and cultivated in serum free medium. Different concentrations of LL-37/hCAP-18 and control peptides were added to the culture medium. Figures on the left hand side indicate the numbers of cells per µl of volume after 72 h. VEGF was used as positive control. […] A significance level of P < 0.05 is labeled with **.b. […] HUVECs were seeded on Matrigel support and cultivated in serum free medium in the absence (c) or presence (d) of 0.5 µg/ml LL-37/hCAP-18. After 18 h, the cultures were inspected for the formation of rings and cords. Representative figures are shown.
Endothelial cells from human umbilical veins (HUVEC) were isolated as described before ^8. 10^4 cells were seeded on six well plastic dishes in serum free medium. Different concentrations of LL-37 were added to the culture medium. VEGF (5 ng / ml, 165 amino acid variant, Sigma Chemicals, Munich, Germany) was used as positive control. After 72 h the cells were detached from the support and counted. Experiments were repeated ten times using synthetic LL-37/hCAP-18 (37 C-terminal amino acids) and the hexapeptide WKYMVm, wherein "m" denotes the D-form of the amino acid methionine, from two different sources (IPF Pharmaceuticals, Hannover, Germany and Institute for Biochemistry, Humboldt-University of Berlin, Germany). As control peptide we used the peptide L-14 […] to have any interactions with FPRL1 from the same source (Humboldt-University). Human serum (10 %, donor with ABO blood group O) was applied under the same conditions to analyze any impact on induction of proliferation by LL-37. For inhibition experiments we applied inhibitors of G-protein coupled receptors (pertussis toxin, 10 ng/ml), PI-3K (wortmannin), and PKC (GF 109203X). For Matrigel assays HUVECs were seeded on Matrigel support (Beckton Dickinson, Franklin Lakes, NJ) and cultivated in serum free medium in the absence or presence of 0.5 µg/ml LL-37. After 18 h, the cultures were inspected for the formation of rings and cords. Experiments were repeated three times. We measured the ability of LL-37/hCAP-18 to accelerate proliferation of HUVECs in a proliferation assay. […] WKYMVm is a specific agonist for FPRL1 ^10.
As a next step we analyzed which mechanisms might be involved in the angiogenic activity of LL-37/hCAP-18. We applied inhibitors of G-protein coupled receptors (pertussis toxin), PI-3K (wortmannin), and PKC (GF 109203X) and monitored cell proliferation as outcome parameter.

Row | Structure (SMILES) | effect of inhibitor on baseline cell proliferation | effect of inhibitor on proliferative response induced by LL-37/hCAP-18 | effect of inhibitor on proliferative response induced by LL-37/hCAP-18 (preincubation of endothelial cells with inhibitor (pertussis toxin 10 ng/ml)) | effect of inhibitor on baseline cell proliferation (without LL-37/hCAP-18)
1 | COC[C@H]1OC(=O)c2coc3c2[C@@]1(C)C1=C(C3=O)[C@@H]2CCC(=O)[C@@]2(C)C[C@H]1OC(C)=O [wortmannin] | no effect on the baseline measurements | inhibition of the proliferative response; also recorded: inhibited activities of LL-37/hCAP-18 on endothelial proliferation |  | 
2 | CN(C)CCCn1cc(C2=C(c3c[nH]c4ccccc34)C(=O)NC2=O)c2ccccc21 [GF 109203X] |  |  | inhibition of the proliferative response; also recorded: inhibited activities of LL-37/hCAP-18 on endothelial proliferation | no effect on the baseline measurements
